Experimental data from patent publication US20210340524A1, “METHODS FOR IDENTIFYING CHIMERIC ANTIGEN RECEPTOR-TARGETING LIGANDS AND USES THEREOF” (Massachusetts Institute of Technology, priority 2020, published 2021).
One block for each compound: values may come before it. Where a SMILES comes first, the peptide text is derived from it. Bridges are numbered along the chain shown (N, C = ends). Where no end group is shown, it is not given here. The star is where a group is joined. Biotin = O=C1N[C@H]2[C@H](CS[C@H]2CCCCC(=O)*)N1

What was measured:
FMC63 scFv [1] = assay: Dissociation kinetics of FMC63 scFv from yeast clones, flow cytometry; assay type: binding, murine; settings: yeast clones labeled with FMC63 scFv, washed, incubated 0-72 hours
Chain of FMC63 scFv (as listed by the source): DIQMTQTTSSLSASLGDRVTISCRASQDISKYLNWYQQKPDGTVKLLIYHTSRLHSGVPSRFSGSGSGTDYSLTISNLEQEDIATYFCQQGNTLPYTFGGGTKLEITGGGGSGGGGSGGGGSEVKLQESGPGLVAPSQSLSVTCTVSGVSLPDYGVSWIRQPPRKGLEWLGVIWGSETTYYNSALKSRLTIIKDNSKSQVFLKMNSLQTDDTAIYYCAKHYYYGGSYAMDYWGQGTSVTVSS
Protocol: The dissociation kinetics following binding of the mimotopes to FMC63 were also investigated. Briefly, yeast clone expressing F12 (SEQ ID NO: 18) or K-A1 (SEQ ID NO: 100) were incubated with labeled FMC63 scFv. The yeast were then washed, and incubated for 0-72 hours prior to analysis of the degree of FMC63 scFv labeling by flow cytometry. […] However, the yeast clone expressing K-A1 retained FMC63 even up to 72 hours, indicating slower dissociation kinetics compared to F12.

[2] = system: FMC63 anti-hCD19 CAR-T cells; assay: IFNγ secretion of FMC63 CAR-T cells co-cultured with amph-mimotope coated K562 cells (ELISA); assay type: cell-based; settings: K562 cells coated with 10 μM amph-mimotope; E:T 10:1; 24 hours; compared to amphiphile only control
Protocol: To determine the effect of the CD19 amph-mimotope on chimeric antigen receptor (CAR) T cells, in vitro stimulation of CAR-T cells was assessed after co-culture with antigen presenting cells (APCs) providing the amph-mimotope (FIG. 8A). Specifically, K562 cells were pelleted at 1,000×g for 3 minutes and washed with PBS twice to remove residual protein. The cell pellet was then resuspended at 1×10^6 cells/mL in PBS containing amph-mimotope ([…]; SEQ ID NO: 5) at 10 μM and incubated at 37° C. for 30 minutes. The labeling reaction was stopped by pelleting cells and washing with PBS. To mimic antigen presenting cells in lymph nodes, K562 cells were decorated with amph-mimotope, and then co-cultured at an effector to target (E:T) ratio of 10:1 with FMC63 expressing CAR-T cells (hCD19-CAR; SEQ ID NO: 78) for 24 hours. […]

FMC63 CAR T cells = assay: In vivo proliferation of FMC63 CAR T cells in inguinal lymph nodes (cell trace violet dilution); settings: mice, s.c. tail base, 10 ug monovalent or 20 ug bivalent + 25 μg cyclic-di-GMP; inguinal LNs 48 hours post-vaccination
Protocol: CD45.1^+ donor FMC63 CAR T cells were prepared as described in Example 3 and labeled with cell trace violet according to manufacturer's protocol. 2×10^6 CAR T cells were administered into CD45.2^+ recipient mice via tail vein injection on Day 0. The following day, recipient mice were vaccinated by subcutaneous injection at the tail base with the following vaccine formulation: […]
(i) 10 ug of monovalent amph-mimotope (Amph-K-A1 or Amph-K-C2)+25 μg of cyclic-di-GMP in 1×PBS; or
(ii) 20 ug of amph-Bi-F12-mimotope (PEG4 or PEG8)+25 μg of cyclic-di-GMP in 1×PBS.
The volume of the formulation was 100 μL total, and the mice were administered 50 μL per each site of the tail base. Control mice received no vaccination. At 48 hours post-vaccination, recipient mice were euthanized and inguinal LNs were isolated for FACS analysis of CAR T proliferation.

[3] = Micelle stability of lipid-oligonucleotide conjugates in the presence of serum (FBS); assay type: physicochemical; settings: for micelle stability on increasing number of guanines: in the presence of serum
From the text: In certain embodiments, the linker is one or more guanines, for example between 1-10 guanines. It has been discovered that altering the number of guanines between a cargo such as a CpG oligonucleotide, and a lipid tail controls micelle stability in the presence of serum proteins. Therefore, the number of guanines in the linker can be selected based on the desired affinity of the conjugate for serum proteins such as albumin. When the cargo is a CpG immunostimulatory oligonucleotide and the lipid tail is a diacyl lipid, the number of guanines affects the ability of micelles formed in aqueous solution to dissociate in the presence of serum: 20% of the non-stabilized micelles (lipo-G0T10-CG) (SEQ ID NO: 138) were intact, while the remaining 80% were disrupted and bonded with FBS components.

FMC63 IgG [4] = assay: ELISA of N-terminally biotinylated F12 variants on streptavidin plate, binding to FMC63 IgG; set-up: species or system murine; settings: biotinylated peptides, read-out: Kd (nM), FMC63 binding affinity of F12 variants with N-terminal flanking residues
From the text: It was further evaluated if addition of flanking residues to the terminus of a FMC63-binding mimotope would increase its binding affinity to FMC63, e.g., by increasing the mimotope surface area available for engaging in protein-protein interactions with FMC63. […] Additional Ser-Gly residues (between 3 and 15 additional residues) were included to further extend the N-terminal flanking region.

FMC63 IgG [5] = assay: Mimotope binding to FMC63 after DTT treatment of yeast, flow cytometry; set-up: species or system murine; settings: DTT 0.01-10 mM, 30 minutes, room temperature
Protocol: To determine the formation of an intra-peptidyl disulfide bridge formed by the two Cys residues, mimotope expressing yeast were treated in reducing conditions and binding of the mimotope to FMC63 IgG was measured. […] Similarly, control cells expressing Aga2p (connected to the yeast surface by disulfide bridge) were treated with DTT. Following treatment, cells were labelled with biotinylated Aga2p or FMC63 and binding was measured by flow cytometry. At mild reducing conditions, Aga2p was maintained on the yeast surface while mimotope binding to FMC63 was abolished (FIG. 6). The inhibition of mimotope binding to FMC63 following treatment with a reducing agent reaffirms the formation of the disulfide bond and its importance for binding.
Target sequence in this assay (as listed by the source): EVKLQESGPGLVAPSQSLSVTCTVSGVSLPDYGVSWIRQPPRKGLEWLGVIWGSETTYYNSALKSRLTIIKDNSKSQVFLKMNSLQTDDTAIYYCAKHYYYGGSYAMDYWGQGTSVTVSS
Target sequence in this assay (as listed by the source): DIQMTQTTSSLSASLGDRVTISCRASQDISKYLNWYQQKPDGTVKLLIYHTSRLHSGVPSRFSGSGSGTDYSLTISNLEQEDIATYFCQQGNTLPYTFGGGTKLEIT

FMC63 scFv [6] = assay: Yeast clone binding to biotinylated FMC63 scFv monomer, Kd by FACS; set-up: species or system murine; settings: yeast clones
Protocol: Identifying specific mimotope clones of varying affinities will provide flexibility in treatments. In order to validate specific sequences, clones were isolated and measured for their affinity to FMC63. Specifically, a subset of mimotope clones were selected from the fixed library sequence described in Example 5. […] Given the FDA-approved CAR is an scFV derived from the parental IgG, mimotope binding to FMC63-scFv monomer was tested using biotinylated FMC63 scFV to measure Kd by FACS (FIG. 10B). […] This screen positively identified mimotope clones with varying affinities to FMC63 which may be used for a tailored vaccine approach.

Compound: RICPWNCKEL [Clone F12]
time of retention of FMC63 scFv labeling after wash (FMC63 scFv [1]): ≤ 0.5 h

Compound: amph-mimotope: DSPE-PEG2000 conjugated onto the N-terminus of synthesized cyclic mimotope RHCPWNCSLL (SEQ ID NO: 5) (disulfide 3-7 (inferred); not fully specified (N-terminus))
activation of CAR-T cells measured by IFNγ secretion [2]: significantly activated

Compound: Amph-K-C2: monovalent amph-mimotope: mimotope SEQ ID NO: 129 conjugated to DSPE-PEG2k (GGGSASRICPWNCKELPSPPRIFGNR; not fully specified; DSPE-PEG2k conjugate; Synthetic: Mimotope of Amph-K-C2)
proliferation of CAR T cells in vivo measured by cell violet dilution (FMC63 CAR T cells): observed

Compound: lipo-G10T0-CG: diacyl lipid tail, G10T0 linker, CpG immunostimulatory oligonucleotide (DNA GGGGGGGGGGCG; diacyl lipid tail conjugated, backbone chemistry not given here)
micelle stability on increasing number of guanines [3]: did not further enhance micelle stability

Kd (FMC63 IgG [4]): 0.153 nM
Compound: CC[C@H](C)[C@H](NC(=O)[C@H](CCCNC(=N)N)NC(=O)[C@H](CO)NC(=O)[C@H](C)NC(=O)[C@H](CO)NC(=O)CNC(=O)CNC(=O)CNC(=O)CNC(=O)[C@H](CO)NC(=O)CNC(=O)CNC(=O)CNC(=O)CNC(=O)[C@H](CO)NC(=O)CNC(=O)CNC(=O)CNC(=O)CNC(=O)CCCC[C@@H]1SC[C@@H]2NC(=O)N[C@@H]21)C(=O)N[C@H]1CSSC[C@@H](C(=O)N[C@@H](CCCCN)C(=O)N[C@@H](CCC(=O)O)C(=O)N[C@@H](CC(C)C)C(=O)O)NC(=O)[C@H](CC(N)=O)NC(=O)[C@H](Cc2c[nH]c3ccccc23)NC(=O)[C@@H]2CCCN2C1=O [SEQ ID NO: 99] (Biotin-GGGGSGGGGSGGGGSASRICPWNCKEL-OH; disulfide 20-24)

Compound: lipo-G0T10-CG: diacyl lipid tail, G0T10 linker, CpG immunostimulatory oligonucleotide; non-stabilized micelles (DNA TTTTTTTTTTCG; diacyl lipid tail conjugated, backbone chemistry not given here)
percentage of micelles disrupted and bonded with FBS components ([3]; in the presence of serum (FBS)): 80%

Kd (FMC63 IgG [4]): 0.139 nM
Compound: CC[C@H](C)[C@H](NC(=O)[C@H](CCCNC(=N)N)NC(=O)[C@H](CO)NC(=O)[C@H](C)NC(=O)[C@H](CO)NC(=O)CNC(=O)CNC(=O)CNC(=O)CNC(=O)[C@H](CO)NC(=O)CNC(=O)CNC(=O)CCCC[C@@H]1SC[C@@H]2NC(=O)N[C@@H]21)C(=O)N[C@H]1CSSC[C@@H](C(=O)N[C@@H](CCCCN)C(=O)N[C@@H](CCC(=O)O)C(=O)N[C@@H](CC(C)C)C(=O)O)NC(=O)[C@H](CC(N)=O)NC(=O)[C@H](Cc2c[nH]c3ccccc23)NC(=O)[C@@H]2CCCN2C1=O [SEQ ID NO: 97] (Biotin-GGSGGGGSASRICPWNCKEL-OH; disulfide 13-17)

Compound: PRKHSGRICPWNCKELDNPPFIFGNR [K-A1]
time of retention of FMC63 scFv labeling after wash (FMC63 scFv [1]): ≥ 72 h

mimotope binding to FMC63 after DTT treatment (FMC63 IgG [5]): abolished
Compound: RHCPWNCSLL [Clone A1]

Kd (FMC63 scFv [6]): > 1000 nM
Compound: RICPWSCMVV [Clone B7]

Kd (FMC63 IgG [4]): 0.134 nM
Compound: CC[C@H](C)[C@H](NC(=O)[C@H](CCCNC(=N)N)NC(=O)[C@H](CO)NC(=O)[C@H](C)NC(=O)[C@H](CO)NC(=O)CNC(=O)CNC(=O)CNC(=O)CNC(=O)[C@H](CO)NC(=O)CNC(=O)CNC(=O)CNC(=O)CNC(=O)[C@H](CO)NC(=O)CNC(=O)CCCC[C@@H]1SC[C@@H]2NC(=O)N[C@@H]21)C(=O)N[C@H]1CSSC[C@@H](C(=O)N[C@@H](CCCCN)C(=O)N[C@@H](CCC(=O)O)C(=O)N[C@@H](CC(C)C)C(=O)O)NC(=O)[C@H](CC(N)=O)NC(=O)[C@H](Cc2c[nH]c3ccccc23)NC(=O)[C@@H]2CCCN2C1=O [SEQ ID NO: 98] (Biotin-GSGGGGSGGGGSASRICPWNCKEL-OH; disulfide 17-21)

Compound: lipo-G8T2-CG: diacyl lipid tail, G8T2 linker, CpG immunostimulatory oligonucleotide (DNA GGGGGGGGTTCG; diacyl lipid tail conjugated, backbone chemistry not given here)
micelle stability on increasing number of guanines [3]: did not further enhance micelle stability

Kd (FMC63 scFv [6]): > 1000 nM
Compound: RMCPWSCRPH [Clone A8]
